Data: patent US11173124B2, “Oral delivery of GLP-1 peptide analogs” (MEDIMMUNE LIMITED, priority 2017, dated 2021)
Starred links: 1 amine or outer side, 2 acyl side, 3 side chain; linkers in the order of their positions; H or OH if unused. Non-standard residues stand in square brackets, D forms with d. Residues, ends and D or L forms follow the SMILES beside them. Groups on a side chain read outwards from the residue. *: point of attachment. γGlu = O=C(O)[C@H](CCC(=O)[*:2])N[*:1]; αMeF = C[C@](N)(Cc1ccccc1)C(=O)O; αMeK = C[C@](N)(CCCCN)C(=O)O; Lauroyl = CCCCCCCCCCCC(=O)*; αMeS = C[C@](N)(CO)C(=O)O; AEEA = NCCOCCOCC(=O)O; Aib = CC(C)(N)C(=O)O

Tests used:
[1] = in vivo; conditions: beagle, dog, po
Source text: The following materials and methods were used for quantitative measurements of GLP-1 peptide analogs in plasma (e.g., rat or dog plasma) in the Examples below. These methods used a SCIEX 6600 TripleTOF mass spectrometer coupled with a Shimadzu ultra-high performance liquid chromatography (UHPLC). The specificity of the method was ensured by the retention time, the selected mass for Single-Reaction-Monitoring (SRM) mode, and the selected fragment mass in MS/MS (MS^2) mode. […] The analytes of interest were analyzed from plasma, a complex biological matrix. Although protein precipitation using organic solvent can reduce matrix interference, significant background still persists. The high mass accuracy offered by the TripleTOF mass spectrometers further eliminated background noise, thus enhancing signal: noise (S/N) and allowing improved quantification.
The plasma extraction procedure used the following steps: • Samples, standards, and quality controls were incubated until they reached room temperature. They were then incubated at 60° C. for 2 minutes and cooled down to room temperature, vortexed, and spun down. • 70 μL of samples, standards, or quality controls were transferred into a 1 mL 96-well plate. • In each well, 420 uL of Precipitation Solution was added. The plate was sealed and shook for 10 minutes on a plate shaker at 600 rpm. • The plate was centrifuged at 18G, 2500 RFC, 20° C. for 10 minutes. • The plate was carefully removed, and the upper clear supernatant was extracted with a 200 uL multichannel pipette into a new 96-well protein lobind plate. The supernatant was extracted twice for each well, and the supernatants were combined. • The Plate was placed in TurboVap and the extracted supernatant was dried completely with heated (65° C.) Nitrogen gas at 60 Fahrenheit (Fh). • After the plate was completely dry, the plates were covered and incubated at room temperature for at least 30 minutes until the plate returned back to ambient temperature. • 150 μL of Reconstitution solution was added to each well. The plate was covered with a pierceable place seal and shaken at 600 rpm for 10 minutes. • The samples were submitted to the LC-MS/MS on the same day of Preparation
Quantification of the data obtained using the high resolution SCIEX 6600 instrument was then performed as follows: • For the quantification, extracted ion chromatograms (XIC) using 0.2 Da m/z extraction window centered on the accurate mass of each fragment ion were generated. Accurate mass was calculated from the structure of the compound. […] Concentrations of the target analyte in unknown samples were obtained by regression analysis using linear fits of peak areas vs. analyte concentration, weighted 1/(concentration). • The quality of the assay was controlled by the quality control samples. • Either Experiment 1 or Experiment 2 could be used for the quantification of the GLP-1 peptide analogs in high resolution mode.
MEDI7219 (SEQ ID NO:2) formulations were studied in the following canine study, which was designed to compare different tablet delivery systems and peptides in enterically coated tablet formulation compositions delivered orally. […]
The efficacy of sodium caprate as a permeation enhancer was also evaluated.

[2] = Second rat intraduodenal study, permeation enhancers from Caco-2 (Example 5); format: in vivo; conditions: for AUC / Cmax / Tmax / half-life: in vivo, pH 8, rat
Procedure: Solution formulations comprising GLP-1 peptide analogs were injected into rats in the duodenum segment of the small intestine. The first ID study involved the use of sodium caprate as the permeation enhancer and the SEQ ID NO:3 GLP-1 peptide analog. Absolute bioavailability (% F) is a percentage-expressed measure of systemic drug exposure after oral, or in the current example intraduodenal, administration to the systemic exposure generated with intravenous (IV) administration of drug solution. Absolute bioavailability, (% F), is calculated as a percentage of systemic, or blood, drug concentration area under curve (AUC) of the AUC of IV administration adjusted to the amounts of drug given via these routes of administration.
Following the initial rat ID study, a second rat ID administration study was performed to evaluate the influence of permeation enhancers identified from the Caco-2 model study. That is, tetradecyl maltoside, sodium chenodeoxycholate, and combination of sodium chenodeoxycholate and propyl gallate were tested for their effect on oral bioavailability of the SEQ ID NO:3 peptide (Table 6).

[3] = ID, 1 mg/kg peptide + 25 mg/kg Na CDC + 12.5 mg/kg PG, PBS pH 8.0
[4] = ID, 1 mg/kg peptide + 25 mg/kg Na CDC, PBS pH 8.0
[5] = ID, 1 mg/kg peptide + 25 mg/kg Tetradecylmaltoside, PBS pH 8.0
[6] = ID, 1 mg/kg peptide + 50 mg/kg Na CDC, PBS pH 8.0
[7] = ID, 1 mg/kg peptide + 50 mg/kg Tetradecylmaltoside, PBS pH 8.0
[8] = ID, 10 mg/kg peptide + 50 mg/kg Na CDC + 25 mg/kg PG, PBS pH 8.0
[9] = ID, 10 mg/kg peptide + 50 mg/kg Na CDC, PBS pH 8.0
[10] = ID, 10 mg/kg peptide + 50 mg/kg Tetradecylmaltoside, PBS pH 8.0
[11] = 1 mg/kg, ID, 1 mg/kg peptide, no permeation enhancer, PBS pH 8.0
[12] = iv, 0.01 mg/kg, 0.01 mg/kg peptide in PBS pH 8.0
[13] = ID, 1 mg/kg peptide + 50 mg/kg Na CDC + 25 mg/kg PG, PBS pH 8.0

Question: Which results are given for `CCCCCCCCCCCC(=O)N[C@@H](CCC(=O)NCCOCCOCC(=O)NCCOCCOCC(=O)NCCCC[C@H](NC(=O)[C@H](C)NC(=O)[C@@H](NC(=O)[C@](C)(Cc1ccccc1)NC(=O)[C@H](CCC(=O)O)NC(=O)[C@](C)(CCCCN)NC(=O)[C@H](C)NC(=O)[C@H](C)NC(=O)[C@H](CCC(=O)O)NC(=O)CNC(=O)[C@H](CCC(=O)O)NC(=O)[C@H](CC(C)C)NC(=O)[C@H](CCCCNC(=O)COCCOCCNC(=O)COCCOCCNC(=O)CC[C@H](NC(=O)CCCCCCCCCCC)C(=O)O)NC(=O)[C@H](CO)NC(=O)[C@](C)(CO)NC(=O)[C@@H](NC(=O)[C@H](CC(=O)O)NC(=O)[C@H](CO)NC(=O)[C@@H](NC(=O)[C@](C)(Cc1ccccc1)NC(=O)[C@H](CO)NC(=O)CNC(=O)[C@H](CCC(=O)O)NC(=O)C(C)(C)NC(=O)[C@@H](N)Cc1c[nH]cn1)[C@@H](C)O)C(C)C)[C@@H](C)CC)C(=O)N[C@H](C(=O)N[C@H](C(=O)N[C@@H](CCC(=O)O)C(=O)NCC(=O)NCC(N)=O)C(C)C)C(C)C)C(=O)O` [MEDI7219, Free-H-[AIB]-EGS-[αMePhe]-TSDV-[αMeSer]-SK[(PEG2)2-γE-Lauroyl]-LEGEAA-[αMeLys]-E-[αMePhe]-IAK[(PEG2)2-γE-Lauroyl]-VVEGG-amide] (H-H[Aib]EGS[αMeF]TSDV[αMeS]SK([AEEA-AEEA-γGlu-Lauroyl])LEGEAA[αMeK]E[αMeF]IAK([AEEA-AEEA-γGlu-Lauroyl])VVEGG-NH2)?
Answer: AUC [1]: 13500 ng·h/mL; half-life [1]: 10 h

Question: Which results are given for `CC[C@H](C)[C@H](NC(=O)C(C)(Cc1ccccc1)NC(=O)[C@H](CCC(=O)O)NC(=O)[C@H](CCCCNC(=O)COCCOCCNC(=O)COCCOCCNC(=O)CC[C@H](NC(=O)CCCCCCCCCCCCCCCCC(=O)O)C(=O)O)NC(=O)[C@H](C)NC(=O)[C@H](C)NC(=O)[C@H](CCC(=O)O)NC(=O)CNC(=O)[C@H](CCC(=O)O)NC(=O)[C@H](CC(C)C)NC(=O)C(C)(Cc1ccccc1)NC(=O)[C@H](CO)NC(=O)C(C)(CO)NC(=O)[C@@H](NC(=O)[C@H](CC(=O)O)NC(=O)[C@H](CO)NC(=O)[C@@H](NC(=O)C(C)(Cc1ccccc1)NC(=O)[C@H](CO)NC(=O)CNC(=O)[C@H](CCC(=O)O)NC(=O)C(C)(C)NC(=O)[C@@H](N)Cc1c[nH]cn1)[C@@H](C)O)C(C)C)C(=O)N[C@@H](C)C(=O)NC(C)(Cc1ccccc1)C(=O)N[C@H](C(=O)N[C@H](C(=O)NC(C)(CCCCN)C(=O)NCC(=O)NCC(N)=O)C(C)C)C(C)C` (stereo partly drawn) [SEQ ID NO: 3, Free-H-[AIB]-EGS-[αMePhe]-TSDV-[αMeSer]-S-[αMePhe]-LEGEAAK[(PEG2)2-γE-Stearate]-E-[αMePhe]-IA-[αMePhe]-VV-[αMeLys]-GG-amide]?
Answer: F [2, 3]: 0.28%; F [2, 4]: 0.12%; F [2, 5]: 0.08%; F [2, 6]: 0.21%; F [2, 7]: 0.06%; increase of oral bioavailability ([2]; ID, 1 mg/kg peptide, 50 mg/kg sodium chenodeoxycholate and 25 mg/kg propyl gallate (to 0.39%)): ~20 fold; F [2, 8]: 0.42%; F [2, 9]: 0.28%; F [2, 10]: 0.07%; F ([2]; Intravenous, 0.01 mg/kg peptide in PBS pH 8.0): 100%; AUC [2, 11]: 19.4 ng·h/mL; Cmax [2, 11]: 3.16 ng/mL; Tmax [2, 11]: 8 h; AUC [2, 12]: 1030 ng·h/mL; Cmax [2, 12]: 96.2 ng/mL; half-life ([2]; iv, 0.01 mg/kg, Intravenous, 0.01 mg/kg peptide in PBS pH 8.0, read-out: T ½ (converted)): 2.9 h; AUC [2, 3]: 293 ng·h/mL; Cmax [2, 3]: 39 ng/mL; Tmax [2, 3]: 0.3 h; half-life ([2]; ID, 1 mg/kg peptide + 25 mg/kg Na CDC + 12.5 mg/kg PG, PBS pH 8.0, read-out: T ½ (converted)): 9.1 h; AUC [2, 4]: 121 ng·h/mL; Cmax [2, 4]: 21.3 ng/mL; Tmax [2, 4]: 0.3 h; half-life ([2]; ID, 1 mg/kg peptide + 25 mg/kg Na CDC, PBS pH 8.0, read-out: T ½ (converted)): 7.16 h; AUC [2, 5]: 87.3 ng·h/mL; Cmax [2, 5]: 5.4 ng/mL; Tmax [2, 5]: 1 h; half-life ([2]; ID, 1 mg/kg peptide + 25 mg/kg Tetradecylmaltoside, PBS pH 8.0, read-out: T ½ (converted)): 17.4 h; AUC [2, 13]: 402 ng·h/mL; Cmax [2, 13]: 58.1 ng/mL; Tmax [2, 13]: 0.5 h; half-life ([2]; ID, 1 mg/kg peptide + 50 mg/kg Na CDC + 25 mg/kg PG, PBS pH 8.0, read-out: T ½ (converted)): 9.9 h; AUC [2, 6]: 212 ng·h/mL; Cmax [2, 6]: 30.9 ng/mL; Tmax [2, 6]: 0.5 h; half-life ([2]; ID, 1 mg/kg peptide + 50 mg/kg Na CDC, PBS pH 8.0, read-out: T ½ (converted)): 9.3 h; AUC [2, 7]: 63.2 ng·h/mL; Cmax [2, 7]: 5.8 ng/mL; Tmax [2, 7]: 1 h; half-life ([2]; ID, 1 mg/kg peptide + 50 mg/kg Tetradecylmaltoside, PBS pH 8.0, read-out: T ½ (converted)): 10.3 h; AUC [2, 8]: 4330 ng·h/mL; Cmax [2, 8]: 670 ng/mL; Tmax [2, 8]: 0.5 h; half-life ([2]; ID, 10 mg/kg peptide + 50 mg/kg Na CDC + 25 mg/kg PG, PBS pH 8.0, read-out: T ½ (converted)): 11 h; AUC [2, 9]: 2920 ng·h/mL; Cmax [2, 9]: 380 ng/mL; Tmax [2, 9]: 0.5 h; half-life ([2]; ID, 10 mg/kg peptide + 50 mg/kg Na CDC, PBS pH 8.0, read-out: T ½ (converted)): 9.4 h; AUC [2, 10]: 705 ng·h/mL; Cmax [2, 10]: 51.5 ng/mL; Tmax [2, 10]: 0.5 h; half-life ([2]; ID, 10 mg/kg peptide + 50 mg/kg Tetradecylmaltoside, PBS pH 8.0, read-out: T ½ (converted)): 8.19 h
